Values of other authors as cited in patent US10246411B2, “(Z)-3,4,5-trimethoxystyrylbenzenesulfonamides as potential anticancer agents” (COUNCIL OF SCIENTIFIC & INDUSTRIAL RESEARCH, priority 2014, dated 2019).

Assays:
tubulin = conditions: background, literature; cited from earlier work
[1] = system: VCR-resistant P388 cell lines; conditions: two kinds of VCR-resistant P388 cell lines; background, literature; cited from earlier work

| Compound | inhibition of tubulin polymerization (tubulin) | activity against VCR-resistant P388 cell lines [1] |
| --- | --- | --- |
| COc1cc(/C=C\c2ccc(OC)c(N)c2)cc(OC)c1 [(Z)-5-(3,5-dimethoxystyryl)-2-methoxyaniline] | five times stronger than CA-4 |  |
| COc1ccc(/C=C\c2cc(OC)c(OC)c(OC)c2)cc1O [CA-4, Combretastatin A-4] | potent inhibitor of tubulin polymerization |  |
| COc1ccc(S(=O)(=O)Nc2cccnc2Nc2ccc(O)cc2)cc1 [E7010, N-[2-[(4-hydroxyphenyl)amino]-3-pyridinyl]-4-methoxybenzenesulfonamide] | dose-dependent inhibition of tubulin polymerization | active |
